Test results published in US9040527B2, “Pyrimidinediamine kinase inhibitors” (Rigel Pharmaceuticals, Inc., priority 2008, dated 2015).
Structures can show the parent of a compound that is named as a salt. Where two headings read alike, the source gives them in different places.

Molecular target: PLK1 (Homo sapiens, UniProt P53350)
Assay: In vitro PLK1 ELISA assay (biochemical)
Parameters: purchased Cell Signalling 7728
Procedure: Inhibition of PLK1 was measured by quantifying phosphorylation of PLK1 substrates using chemiluminescent and fluorogenic probes. The protocols for these assays are provided below.
In Vitro PLK1 ELISA Assay
1. Preparation of Assay Plates.
Costar 96-well black or white solid flat high binding plates (Fisher Scientific, Catalog No. 07-200-591) were coated with Neutravidin (Pierce, Catalog No. 31000) using the following protocol. A 0.01 mg/mL solution of Neutravidin in 1× Phosphate Buffered Saline (“PBS”, Cellgro/Mediatech, Catalog No. 21-040-CV) was added to each well (100 μL/well) and was incubated for 18-24 hours at 4° C. The plates were then washed with 1× Phosphate Buffer Saline—Tween (“PBST”, Calbiochem, Catalog No. 524653) buffer using a plate washer. The plates were treated with bovine serum albumin (“BSA”, Sigma, Catalog No. A7906) to block non-specific binding sites, by adding a 2% BSA solution in 1×PBST buffer to each well (100 μL/well) and incubating the plates for 1 hour at room temperature. The plates were then washed with 1×PBST buffer using a plate washer.
2. PLK1-Catalyzed Phosphorylation Reaction
An aqueous buffer solution A having the following composition was prepared:
20 mM HEPES (Cellgro/Mediatech, Catalog No. 25-060Ci), pH 7.2;
5 mM MgCl2 (Sigma, Catalog No. M2393);
2 mM MnCl2.4H2O (EM Biosciences, Catalog No. MX0185-2);
1 mM Dithiothreitol (“DTT”, Fluka, Catalog No. B4184).
Next, the substrate solution B was prepared by adding 2.6 μL of 10 mM ATP (Sigma, Catalog No. A7699) and 6.4 μL of the 1 mM PLK1 substrate, CHK2-derived peptide Biotin-SSLETVSTQELYSIP (custom synthesized at Anaspec) SEQ ID: No. 1, to 4691 μL of the buffer solution A. The concentration of the ATP in solution B is 5.44 μM (1.36×); the concentration of the PLK1 substrate in solution B is 1.36 μM (1.36×).
Compound solutions C of varying concentrations for each compound were prepared by dissolving each compound in dimethylsulfoxide (DMSO, Sigma, Catalog No. D2650) to varying concentrations, followed by adding 2 μL of each solution to 38 μL of the buffer solution A, thereby forming 10× compound solutions in 5% DMSO.
A PLK1 solution D was prepared by adding 8.4 μL of 100 μg/mL PLK1 (Cell Signalling, Catalog No. 7728) to 1392 μL of the buffer solution A, thereby forming 0.6 μg/mL (6×) PLK1 solution.
The aqueous 1.36× substrate solution B was added to each well (44 μL/well) resulting in binding of the substrate to the plate via biotin/neutravidin interaction. Then 10× compound solutions C for each tested compound at each tested concentration were added to each well (6 μL/well). Next, 6×PLK1 solution D was added to each well (10 μL/well).
The final concentrations of tested compounds in each well were 10 μM, 3.3 μM, 1.1 μM, 0.36 μM, 0.12 μM, 0.04 μM, 0.014 μM, and 0.005 μM.
The obtained reaction mixtures were incubated in the wells for 45 minutes at room temperature, allowing PLK1-catalyzed phosphorylation of the substrate to proceed. The plates were then washed with 1×PBST solution using a plate washer, such that the bound phosphorylated or unphosphorylated substrate remains attached to the wells upon washing.
The washed plates were developed by treating the plates with a primary antibody that is specific for the phosphorylated substrate, followed by treatment with a secondary antibody that is specific for the primary antibody, and that is capable of catalyzing a reaction that results in a chemiluminescent readout. The chemiluminescent readout was used to quantify the substrate phosphorylation, and, consequently, to determine IC50 values for PLK1 inhibition, and was measured using a luminometer (Perkin Elmer/Wallac plate reader). The plate development protocol is described below.
A mixed antibody solution E was prepared by adding 1 μL of the primary antibody, rabbit p-CHK2(T68) (Rockland, Catalog No. 401280), and 1 μL of the secondary antibody, HRP-goat anti-rabbit IgG (Jackson Immunoresearch Catalog No. 111-035-003) to 10000 μL of 0.1% BSA in 1×PBST buffer. […]

[1] = ELISA, CHK2-derived peptide substrate, read-out: PLK1 IC50 (μM) biochemical assay
[2] = read-out: IC50 in biochemical in vitro PLK1 ELISA assay (less than 10 μM)
[3] = read-out: IC50 in biochemical ELISA assay (less than 0.01 μM)

PLK1, sequence (P53350 whole entry): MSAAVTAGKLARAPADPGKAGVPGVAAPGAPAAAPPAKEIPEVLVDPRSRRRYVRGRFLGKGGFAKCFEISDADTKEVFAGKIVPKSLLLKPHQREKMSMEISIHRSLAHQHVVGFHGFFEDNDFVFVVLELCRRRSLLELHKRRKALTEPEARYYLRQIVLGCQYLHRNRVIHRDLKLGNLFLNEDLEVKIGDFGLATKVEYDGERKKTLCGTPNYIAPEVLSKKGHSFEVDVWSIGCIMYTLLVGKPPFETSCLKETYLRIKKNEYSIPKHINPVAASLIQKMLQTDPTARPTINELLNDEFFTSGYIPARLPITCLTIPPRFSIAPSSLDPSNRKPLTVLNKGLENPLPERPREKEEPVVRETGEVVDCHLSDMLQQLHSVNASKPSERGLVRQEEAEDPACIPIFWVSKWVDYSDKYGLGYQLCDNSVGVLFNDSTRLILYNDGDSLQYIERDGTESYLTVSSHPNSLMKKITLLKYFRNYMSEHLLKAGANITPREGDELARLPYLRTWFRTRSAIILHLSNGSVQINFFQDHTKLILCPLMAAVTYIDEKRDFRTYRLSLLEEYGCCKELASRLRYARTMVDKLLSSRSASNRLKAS

Row | SMILES | IC50 [1] [µM] | IC50 [2] [µM] | IC50 [3] [µM]
1 | COc1cc(Nc2ncc(F)c(Nc3ccc4c(n3)NC(=O)CO4)n2)cc(N2CCN(C)CC2)c1 [compound 3, 6-(5-fluoro-2-(3-methoxy-5-(4-methylpiperazin-1-yl)phenylamino)pyrimidin-4-ylamino)-2H-pyrido[3,2-b][1,4]oxazin-3(4H)-one] | < 0.5 | < 10 | –
2 | CN1CCN(c2cccc(Nc3ncc(F)c(N(CC4CCC4)c4ccc5c(n4)NCCO5)n3)c2)CC1 [compound 4, N4-(cyclobutylmethyl)-N4-(3,4-dihydro-2H-pyrido[3,2-b][1,4]oxazin-6-yl)-5-fluoro-N2-(3-(4-methylpiperazin-1-yl)phenyl)pyrimidine-2,4-diamine] | 5 to 10 | < 10 | –
3 | COc1cc(Nc2ncc(F)c(Nc3ccc4c(n3)NCCO4)n2)cc(N2CCN(C)CC2)c1 [compound 5, N4-(3,4-dihydro-2H-pyrido[3,2-b][1,4]oxazin-6-yl)-5-fluoro-N2-(3-methoxy-5-(4-methylpiperazin-1-yl)phenyl)pyrimidine-2,4-diamine] | < 0.5 | < 10 | < 0.01
4 | CN1CCN(c2cccc(Nc3ncc(C(F)(F)F)c(Nc4ccc5c(n4)NC(=O)CO5)n3)c2)CC1 [compound 6, 6-(2-(3-(4-methylpiperazin-1-yl)phenylamino)-5-(trifluoro-methyl)pyrimidin-4-ylamino)-2H-pyrido[3,2-b][1,4]oxazin-3(4H)-one] | < 0.5 | < 10 | < 0.01
5 | CN1CCN(c2cccc(Nc3ncc(F)c(N(CC4CCCCC4)c4ccc5c(n4)NCCO5)n3)c2)CC1 [compound 7, N4-(cyclohexylmethyl)-N4-(3,4-dihydro-2H-pyrido[3,2-b][1,4]oxazin-6-yl)-5-fluoro-N2-(3-(4-methylpiperazin-1-yl)phenyl)pyrimidine-2,4-diamine] | ≥ 10 | – | –
6 | CC(C)c1cc(Nc2ncc(F)c(Nc3ccc4c(n3)NC(=O)CO4)n2)ccc1N1CC2CC1CN2C (stereo not drawn) [compound 8, 6-(5-fluoro-2-(3-isopropyl-4-(5-methyl-2,5-diazabicyclo[2.2.1]heptan-2-yl)phenylamino)pyrimidin-4-ylamino)-2H-pyrido[3,2-b][1,4]oxazin-3(4H)-one] | ≥ 10 | – | –
7 | CN1CCN(c2cccc(Nc3ncc(F)c(N(c4ccc5c(n4)NCCO5)C4CCCCC4)n3)c2)CC1 [compound 9, N4-cyclohexyl-N4-(3,4-dihydro-2H-pyrido[3,2-b][1,4]oxazin-6-yl)-5-fluoro-N2-(3-(4-methylpiperazin-1-yl)phenyl)pyrimidine-2,4-diamine] | ≥ 10 | – | –
8 | CC(C)c1cc(Nc2ncc(F)c(Nc3ccc4c(n3)NCCO4)n2)ccc1N1CC2CC1CN2C (stereo not drawn) [compound 10, N4-(3,4-dihydro-2H-pyrido[3,2-b][1,4]oxazin-6-yl)-5-fluoro-N2-(3-isopropyl-4-(5-methyl-2,5-diazabicyclo[2.2.1]heptan-2-yl)phenyl)pyrimidine-2,4-diamine] | ≥ 10 | – | –
9 | COC(=O)c1cnc(Nc2cccc(N3CCN(C)CC3)c2)nc1Nc1ccc2c(n1)NCCO2 [compound 11, methyl 4-(3,4-dihydro-2H-pyrido[3,2-b][1,4]oxazin-6-ylamino)-2-(3-(4-methylpiperazin-1-yl)phenylamino)pyrimidine-5-carboxylate] | ≥ 10 | – | –
10 | CN1CCN(c2cccc(Nc3ncc(C(=O)O)c(Nc4ccc5c(n4)NCCO5)n3)c2)CC1 [compound 12, 4-(3,4-dihydro-2H-pyrido[3,2-b][1,4]oxazin-6-ylamino)-2-(3-(4-methyl-piperazin-1-yl)phenyl-amino)pyrimidine-5-carboxylic acid] | ≥ 10 | – | –
11 | CN1CCN(c2cccc(Nc3nccc(Nc4ccc5c(n4)NC(=O)CO5)n3)c2)CC1 [compound 13, 6-(2-(3-(4-methylpiperazin-1-yl)phenylamino)pyrimidin-4-ylamino)-2H-pyrido[3,2-b][1,4]oxazin-3(4H)-one] | ≥ 10 | – | –
12 | CN1CCN(c2cc(Nc3ncc(F)c(Nc4ccc5c(n4)NC(=O)CO5)n3)cc(OCC3CCC3)c2)CC1 [compound 14, 6-(2-(3-(cyclobutylmethoxy)-5-(4-methylpiperazin-1-yl)phenylamino)-5-fluoropyrimidin-4-ylamino)-2H-pyrido[3,2-b][1,4]oxazin-3(4H)-one] | ≥ 10 | – | –
13 | CN1CCN(c2cccc(Nc3ncc(F)c(N(c4ccc5c(n4)NCCO5)C4CCC4)n3)c2)CC1 [compound 15, N4-cyclobutyl-N4-(3,4-dihydro-2H-pyrido[3,2-b][1,4]oxazin-6-yl)-5-fluoro-N2-(3-(4-methylpiperazin-1-yl)phenyl)pyrimidine-2,4-diamine] | 0.5 to 5 | < 10 | –
14 | CN1CCN(c2cc(Nc3ncc(F)c(Nc4ccc5c(n4)NCCO5)n3)cc(OCC3CCC3)c2)CC1 [compound 16, N2-(3-(cyclobutylmethoxy)-5-(4-methylpiperazin-1-yl)phenyl)-N4-(3,4-dihydro-2H-pyrido[3,2-b][1,4]oxazin-6-yl)-5-fluoropyrimidine-2,4-diamine] | < 0.5 | < 10 | –
15 | CN1CCN(c2cccc(Nc3ncc(F)c(Nc4ccc5c(n4)NC(=O)CO5)n3)c2)CC1 [compound 19, 6-(5-fluoro-2-(3-(4-methylpiperazin-1-yl)phenylamino)pyrimidin-4-ylamino)-2H-pyrido[3,2-b][1,4]oxazin-3(4H)-one hydrochloride] | – | – | < 0.01
16 | CN1CC2CC1CN2c1ccc(Nc2ncc(F)c(Nc3ccc4c(n3)NCCO4)n2)cc1C(F)(F)F (stereo not drawn) [compound 57, N4-(3,4-dihydro-2H-pyrido[3,2-b][1,4]oxazin-6-yl)-5-fluoro-N2-(4-(5-methyl-2,5-diazabicyclo[2.2.1]heptan-2-yl)-3-(trifluoro-methyl)phenyl)pyrimidine-2,4-diamine] | ≥ 10 | – | –
17 | Cc1cc(Nc2ncc(F)c(Nc3ccc4c(n3)N(CC3CC3)C(=O)CO4)n2)ccc1N1CCN(C)CC1 [compound 111, 4-(cyclopropylmethyl)-6-(5-fluoro-2-(3-methyl-4-(4-methylpiperazin-1-yl)phenylamino)pyrimidin-4-ylamino)-2H-pyrido[3,2-b][1,4]oxazin-3(4H)-one] | 0.5 to 5 | < 10 | –
18 | CN1CCN(c2cccc(Nc3ncc(F)c(Nc4ccc5c(n4)NCCO5)n3)c2)CC1 [compound 168, N4-(3,4-dihydro-2H-pyrido[3,2-b][1,4]oxazin-6-yl)-5-fluoro-N2-(3-(4-methylpiperazin-1-yl)phenyl)pyrimidine-2,4-diamine p-toluene sulfonic acid salt] | – | – | < 0.01
